In ChEMBL document CHEMBL3885881, “DrugMatrix”:

Organism: Rattus norvegicus
Assay: DrugMatrix - Regimen: Daily Repeat
Type: toxicity, organism-based, Sprague-Dawley
Design: regimen Daily Repeat, gender Male, age 6-8 weeks
Details: in vivo, po, route oral GAVAGE, vehicle .5 % CMC; for ABSOLUTE BASOPHIL / ABSOLUTE EOSINOPHIL / ABSOLUTE LYMPHOCYTE / ABSOLUTE MONOCYTE / ABSOLUTE SEGMENTED NEUTROPHIL / BASOPHIL / EOSINOPHIL / ERYTHROCYTE COUNT / HEMATOCRIT / HEMOGLOBIN / LEUKOCYTE COUNT / LYMPHOCYTE / MEAN CORPUSCULAR HEMOGLOBIN / MEAN CORPUSCULAR HEMOGLOBIN CONCENTRATION / MEAN CORPUSCULAR VOLUME / MONOCYTE / NEUTROPHIL / NUCLEATED RED BLOOD CELLS / PLATELET COUNT: tissue Blood; for ALANINE AMINOTRANSFERASE / ALBUMIN / ALKALINE PHOSPHATASE / ASPARTATE AMINOTRANSFERASE / BLOOD UREA NITROGEN / CARBON DIOXIDE / CHLORIDE / CHOLESTEROL / CREATINE PHOSPHOKINASE / CREATININE / GLUCOSE / LACTATE DEHYDROGENASE / LIPASE / PHOSPHORUS / POTASSIUM / SODIUM / TOTAL BILIRUBIN / TOTAL PROTEIN / URIC ACID: tissue Plasma
[1] = 0 mg/kg, 72 h, dose level Control, time 3 day
[2] = 0 mg/kg, 120 h, dose level Control, time 5 day
[3] = 3 mg/kg, 72 h, dose level Low, time 3 day

With CC(=O)Nc1ccc2c(c1)Cc1ccccc1-2 [2-ACETYLAMINOFLUORENE] the “ABSOLUTE BASOPHIL” value [1] was 0 CELLS/uL, the “ABSOLUTE EOSINOPHIL” value [1] was 171.33 CELLS/uL and the “ABSOLUTE LYMPHOCYTE” value [1] was 13776.5 CELLS/uL. For the same compound, the “ABSOLUTE MONOCYTE” value [1] was 180.83 CELLS/uL, the “ABSOLUTE SEGMENTED NEUTROPHIL” value [1] was 1121.33 CELLS/uL and the BASOPHIL [1] was 0%. For the same compound, the EOSINOPHIL [1] was 1%, the “ERYTHROCYTE COUNT” value [1] was 5.56 x10E6/uL and the HEMATOCRIT [1] was 34.75%. For the same compound, the HEMOGLOBIN [1] was 13.68 G/DL, the “LEUKOCYTE COUNT” value [1] was 15.25 x10E3/uL and the LYMPHOCYTE [1] was 90.17%. The “MEAN CORPUSCULAR HEMOGLOBIN” value [1] was 24.6 pg, the “MEAN CORPUSCULAR HEMOGLOBIN CONCENTRATION” value [1] was 39.4 G/DL and the “MEAN CORPUSCULAR VOLUME” value [1] was 62.48 fL. The MONOCYTE [1] was 1.17%, the NEUTROPHIL [1] was 7.67% and the “NUCLEATED RED BLOOD CELLS” value [1] was 0 /100WBC. For the same compound, the “PLATELET COUNT” value [1] was 1342 x10E3/uL, the “ALANINE AMINOTRANSFERASE” value [1] was 49.67 u/L and the ALBUMIN [1] was 4.15 G/DL. For the same compound, the “ALKALINE PHOSPHATASE” value [1] was 346.83 u/L, the “ASPARTATE AMINOTRANSFERASE” value [1] was 108.17 u/L and the “BLOOD UREA NITROGEN” value [1] was 17.33 mg/dL. For the same compound, the “CARBON DIOXIDE” value [1] was 25 mmol/L, the CHLORIDE [1] was 100.83 MEQ/L and the CHOLESTEROL [1] was 66.83 mg/dL. The “CREATINE PHOSPHOKINASE” value [1] was 788 u/L, the CREATININE [1] was 0.18 mg/dL and the GLUCOSE [1] was 151.67 mg/dL. The “LACTATE DEHYDROGENASE” value [1] was 982.5 u/L, the LIPASE [1] was 10.33 u/L and the PHOSPHORUS [1] was 11.23 mg/dL. For the same compound, the POTASSIUM [1] was 6.37 MEQ/L, the SODIUM [1] was 141.02 MEQ/L and the “TOTAL BILIRUBIN” value [1] was 0.18 mg/dL. The “TOTAL PROTEIN” value [1] was 5.9 G/DL, the “URIC ACID” value [1] was 1.8 mg/dL and the “ABSOLUTE BASOPHIL” value [2] was 0 CELLS/uL. The “ABSOLUTE EOSINOPHIL” value [2] was 69 CELLS/uL, the “ABSOLUTE LYMPHOCYTE” value [2] was 13632.83 CELLS/uL and the “ABSOLUTE MONOCYTE” value [2] was 139.83 CELLS/uL. The “ABSOLUTE SEGMENTED NEUTROPHIL” value [2] was 1225 CELLS/uL, the BASOPHIL [2] was 0% and the EOSINOPHIL [2] was 0.33%. For the same compound, the “ERYTHROCYTE COUNT” value [2] was 5.52 x10E6/uL, the HEMATOCRIT [2] was 33.98% and the HEMOGLOBIN [2] was 13.22 G/DL. For the same compound, the “LEUKOCYTE COUNT” value [2] was 15.07 x10E3/uL, the LYMPHOCYTE [2] was 90.83% and the “MEAN CORPUSCULAR HEMOGLOBIN” value [2] was 23.95 pg. The “MEAN CORPUSCULAR HEMOGLOBIN CONCENTRATION” value [2] was 38.9 G/DL, the “MEAN CORPUSCULAR VOLUME” value [2] was 61.53 fL and the MONOCYTE [2] was 0.83%. For the same compound, the NEUTROPHIL [2] was 8%, the “NUCLEATED RED BLOOD CELLS” value [2] was 0 /100WBC and the “PLATELET COUNT” value [2] was 1196 x10E3/uL. For the same compound, the “ALANINE AMINOTRANSFERASE” value [2] was 49.17 u/L, the ALBUMIN [2] was 4.2 G/DL and the “ALKALINE PHOSPHATASE” value [2] was 352.33 u/L. The “ASPARTATE AMINOTRANSFERASE” value [2] was 89.67 u/L, the “BLOOD UREA NITROGEN” value [2] was 18 mg/dL and the “CARBON DIOXIDE” value [2] was 27.67 mmol/L. The CHLORIDE [2] was 101 MEQ/L, the CHOLESTEROL [2] was 72.83 mg/dL and the “CREATINE PHOSPHOKINASE” value [2] was 417.5 u/L. The CREATININE [2] was 0.18 mg/dL, the GLUCOSE [2] was 150.5 mg/dL and the “LACTATE DEHYDROGENASE” value [2] was 517.33 u/L. It also gave an LIPASE [2] of 9 u/L, a PHOSPHORUS [2] of 11.87 mg/dL and a POTASSIUM [2] of 6.57 MEQ/L. For the same compound, the SODIUM [2] was 143.62 MEQ/L, the “TOTAL BILIRUBIN” value [2] was 0.2 mg/dL and the “TOTAL PROTEIN” value [2] was 6.08 G/DL. For the same compound, the “URIC ACID” value [2] was 1.45 mg/dL, the “ABSOLUTE BASOPHIL” value [3] was 0 CELLS/uL and the “ABSOLUTE EOSINOPHIL” value [3] was 75.33 CELLS/uL. For the same compound, the “ABSOLUTE LYMPHOCYTE” value [3] was 11859.67 CELLS/uL, the “ABSOLUTE MONOCYTE” value [3] was 186.67 CELLS/uL and the “ABSOLUTE SEGMENTED NEUTROPHIL” value [3] was 911.67 CELLS/uL. For the same compound, the BASOPHIL [3] was 0%, the EOSINOPHIL [3] was 0.67% and the “ERYTHROCYTE COUNT” value [3] was 5.43 x10E6/uL. The HEMATOCRIT [3] was 34.07%, the HEMOGLOBIN [3] was 13.33 G/DL and the “LEUKOCYTE COUNT” value [3] was 13.03 x10E3/uL. For the same compound, the LYMPHOCYTE [3] was 91%, the “MEAN CORPUSCULAR HEMOGLOBIN” value [3] was 24.57 pg and the “MEAN CORPUSCULAR HEMOGLOBIN CONCENTRATION” value [3] was 39.2 G/DL. The “MEAN CORPUSCULAR VOLUME” value [3] was 62.73 fL, the MONOCYTE [3] was 1.33% and the NEUTROPHIL [3] was 7%. For the same compound, the “NUCLEATED RED BLOOD CELLS” value [3] was 0 /100WBC, the “PLATELET COUNT” value [3] was 1354.67 x10E3/uL and the “ALANINE AMINOTRANSFERASE” value [3] was 43.33 u/L. For the same compound, the ALBUMIN [3] was 4.2 G/DL, the “ALKALINE PHOSPHATASE” value [3] was 360.33 u/L and the “ASPARTATE AMINOTRANSFERASE” value [3] was 88.67 u/L. The “BLOOD UREA NITROGEN” value [3] was 18.33 mg/dL, the “CARBON DIOXIDE” value [3] was 26.33 mmol/L and the CHLORIDE [3] was 100.67 MEQ/L. For the same compound, the CHOLESTEROL [3] was 65 mg/dL, the “CREATINE PHOSPHOKINASE” value [3] was 452 u/L and the CREATININE [3] was 0.23 mg/dL. For the same compound, the GLUCOSE [3] was 148.33 mg/dL, the “LACTATE DEHYDROGENASE” value [3] was 641.33 u/L and the LIPASE [3] was 10.33 u/L. The PHOSPHORUS [3] was 11.33 mg/dL, the POTASSIUM [3] was 6.45 MEQ/L and the SODIUM [3] was 141.2 MEQ/L. For the same compound, the “TOTAL BILIRUBIN” value [3] was 0.23 mg/dL, the “TOTAL PROTEIN” value [3] was 5.9 G/DL and the “URIC ACID” value [3] was 1.6 mg/dL.
